Active and inactive are the calls of the source. Rule as the data show it: actives have a measured IC50 and inactives only a lower limit.
Legend:
Assay type in all cases: functional
[1] = target: T1, Sentrin-specific protease 8 (Homo sapiens, UniProt Q96LD8); assay: inhibition of human SENP8 cleavage activity – biochemical, luminescence, SAR follow-up (AID 504501)
T1 sequence (Q96LD8 whole entry): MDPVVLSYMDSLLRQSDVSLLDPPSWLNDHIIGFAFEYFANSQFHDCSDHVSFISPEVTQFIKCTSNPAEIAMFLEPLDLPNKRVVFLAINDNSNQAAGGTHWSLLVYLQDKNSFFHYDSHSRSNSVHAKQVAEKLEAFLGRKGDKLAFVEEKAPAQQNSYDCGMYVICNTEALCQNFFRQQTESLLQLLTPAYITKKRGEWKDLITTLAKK

[2] = target: T2, Caspase-3 (Homo sapiens, UniProt P42574); assay: SAR Analysis of small molecule inhibitors of Sentrin-specific proteases (SENPs) using a Caspase-3 Selectivity assay. [Related pubchem assays (depositor defined):AID2540, AID2599, AID434973, AID489001]
T2 sequence (P42574 whole entry): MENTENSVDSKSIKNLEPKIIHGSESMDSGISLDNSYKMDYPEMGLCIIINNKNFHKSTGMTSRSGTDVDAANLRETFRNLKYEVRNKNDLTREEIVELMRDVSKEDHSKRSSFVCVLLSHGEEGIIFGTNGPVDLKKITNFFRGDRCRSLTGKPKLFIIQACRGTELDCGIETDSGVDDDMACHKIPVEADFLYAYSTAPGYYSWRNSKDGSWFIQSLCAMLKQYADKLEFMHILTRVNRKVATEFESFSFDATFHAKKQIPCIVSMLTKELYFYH

[3] = target: T3, Sentrin-specific protease 6 (Homo sapiens, UniProt Q9GZR1); assay: SAR Analysis of small molecule inhibitors of Sentrin-specific protease 6 (SENP6) using a Luminescent assay. [Related pubchem assays (depositor defined):AID2582, AID2599]
T3 sequence (Q9GZR1 whole entry): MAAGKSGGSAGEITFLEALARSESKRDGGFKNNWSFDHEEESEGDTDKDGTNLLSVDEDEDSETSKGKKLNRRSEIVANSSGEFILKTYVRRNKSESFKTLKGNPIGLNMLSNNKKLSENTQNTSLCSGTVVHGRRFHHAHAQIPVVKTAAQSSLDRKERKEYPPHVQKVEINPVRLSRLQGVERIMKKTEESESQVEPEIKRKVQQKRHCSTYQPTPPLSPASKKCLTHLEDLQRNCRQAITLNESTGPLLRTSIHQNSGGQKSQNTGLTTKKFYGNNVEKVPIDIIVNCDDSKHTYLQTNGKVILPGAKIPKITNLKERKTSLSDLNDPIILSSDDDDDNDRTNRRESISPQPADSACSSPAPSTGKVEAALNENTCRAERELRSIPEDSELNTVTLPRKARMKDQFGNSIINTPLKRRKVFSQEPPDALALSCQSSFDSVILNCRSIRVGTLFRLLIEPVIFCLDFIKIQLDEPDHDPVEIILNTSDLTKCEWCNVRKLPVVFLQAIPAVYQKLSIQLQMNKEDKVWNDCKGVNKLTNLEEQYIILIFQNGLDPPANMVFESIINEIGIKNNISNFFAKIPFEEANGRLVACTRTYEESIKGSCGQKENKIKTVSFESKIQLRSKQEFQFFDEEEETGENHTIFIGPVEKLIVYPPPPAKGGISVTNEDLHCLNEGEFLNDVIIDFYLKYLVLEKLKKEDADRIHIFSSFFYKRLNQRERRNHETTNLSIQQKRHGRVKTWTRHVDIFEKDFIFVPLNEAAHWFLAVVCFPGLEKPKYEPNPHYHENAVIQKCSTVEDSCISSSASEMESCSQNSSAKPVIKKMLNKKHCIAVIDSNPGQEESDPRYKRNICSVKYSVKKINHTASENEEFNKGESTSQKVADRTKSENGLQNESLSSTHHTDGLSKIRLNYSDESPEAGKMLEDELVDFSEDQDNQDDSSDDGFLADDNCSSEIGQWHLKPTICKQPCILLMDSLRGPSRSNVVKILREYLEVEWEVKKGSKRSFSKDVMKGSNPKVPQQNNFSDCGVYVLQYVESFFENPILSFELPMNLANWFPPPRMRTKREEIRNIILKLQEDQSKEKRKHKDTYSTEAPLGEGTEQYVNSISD

[4] = target: T4, Sentrin-specific protease 7 (Homo sapiens, UniProt Q9BQF6); assay: inhibition of human SENP7 cleavage activity – biochemical, luminescence, SAR follow-up (AID 504497)
T4 sequence (Q9BQF6 whole entry): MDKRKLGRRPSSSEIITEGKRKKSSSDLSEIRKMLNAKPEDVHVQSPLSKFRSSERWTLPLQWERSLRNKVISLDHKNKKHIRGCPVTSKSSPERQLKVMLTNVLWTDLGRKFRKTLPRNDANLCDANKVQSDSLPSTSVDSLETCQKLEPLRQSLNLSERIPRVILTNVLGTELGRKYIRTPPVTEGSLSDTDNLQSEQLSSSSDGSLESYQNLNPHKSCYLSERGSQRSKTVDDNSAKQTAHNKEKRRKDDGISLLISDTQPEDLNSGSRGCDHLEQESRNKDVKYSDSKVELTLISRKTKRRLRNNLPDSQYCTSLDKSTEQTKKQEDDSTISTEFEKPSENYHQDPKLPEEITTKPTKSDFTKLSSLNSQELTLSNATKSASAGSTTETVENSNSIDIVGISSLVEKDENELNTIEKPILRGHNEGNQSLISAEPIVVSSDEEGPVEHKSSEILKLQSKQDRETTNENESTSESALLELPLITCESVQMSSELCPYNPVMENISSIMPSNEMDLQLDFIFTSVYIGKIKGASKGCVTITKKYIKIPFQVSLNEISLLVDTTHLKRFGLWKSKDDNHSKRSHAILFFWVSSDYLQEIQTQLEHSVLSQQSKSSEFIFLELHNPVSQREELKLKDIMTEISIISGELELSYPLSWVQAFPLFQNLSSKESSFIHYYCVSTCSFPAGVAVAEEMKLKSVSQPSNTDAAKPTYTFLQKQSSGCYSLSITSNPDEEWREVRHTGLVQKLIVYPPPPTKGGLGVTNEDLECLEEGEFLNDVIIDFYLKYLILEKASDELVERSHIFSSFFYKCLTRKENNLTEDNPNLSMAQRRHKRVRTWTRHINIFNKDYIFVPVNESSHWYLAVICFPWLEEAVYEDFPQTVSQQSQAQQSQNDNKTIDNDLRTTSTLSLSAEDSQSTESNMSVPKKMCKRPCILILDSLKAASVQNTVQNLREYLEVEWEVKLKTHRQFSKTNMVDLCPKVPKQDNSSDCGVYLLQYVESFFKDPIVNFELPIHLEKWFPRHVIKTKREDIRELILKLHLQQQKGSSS

Measured: IC50

Clc1cccc(/N=C/c2ccc(OC3CSC3)cc2)c1
inactive: [1] > 99 µM | [2] > 99 µM | [3] > 99 µM | [4] > 99 µM

From ChEMBL document CHEMBL1201862, “PubChem BioAssay data set” (2004)
